Results on 21 compounds are retold here after US12466821B2 (Novartis AG, priority 2018, dated 2025).

In test [1] the target is human HSV DNA polymerase UL30 (Human herpesvirus 1 (strain 17) (HHV-1) (Human herpes simplex virus 1), UniProt P04293). Kind of test: HSV polymerase biochemical assay (molecular beacon-based). As for the experimental part: (§1) Both human CMV DNA polymerase UL54 and human HSV DNA polymerase UL30 were produced as N-terminal MBP fusion of the full length, wild type recombinant proteins in order to enhance soluble expression in insect cell expression system. The proteins were expressed in sf9 insect cells via baculovirus transduction and cells were harvested after 48 hours. The soluble proteins were purified using the standard Ni-IMAC purification strategy via the N-terminal hexa-Histidine tag, followed by heparin affinity chromatography. Both of the final MBP fusion proteins were more than 90% pure and the yield of UL54 was up to 1.8 mg per liter culture while UL30 was up to 15 mg per liter culture. All purification steps were performed on ice, with buffers chilled on ice and FPLC fraction collectors set at 6° C. […] UL30 protein was stored in buffer containing 20 mM HEPES, pH7.0, 420 mM NaCl, 20% glycerol, 6 mM Imidazole, and 0.8 mM DTT at−80° C.
(§2) DNA polymerase activity was measured using a molecular beacon-based assay, as described in Ma et. al.
(§3) 100 pM CMV polymerase or 625 pM HSV polymerase was added to a buffer containing 20 mM Tris, pH=7.5, 100 mM NaCl, 10 mM MgCl2, 0.01% Tween-20, 0.5 mM EDTA, 10% Sucrose and 1 mM DTT. The inhibitor was pre-incubated with the polymerase for 30 minutes at room temperature. Reactions were initiated by the addition of a mixture containing 1.25 uM dATP, 1.25 uM dCTP, 1.25 uM dTTP, 1.25 uM dGTP, 200 nM Primer B (5′-GAC GGG AAG-3′5′-GAC GGG AAG-3′) and 100 nM molecular beacon (5′-5,6-FAM-CCTCTCCGTGTCTTGTACTTCCCGTCAGAGAGG-BHQ1-3′). For human CMV polymerase the reactions were incubated for 60 minutes at room temperature. For HSV polymerase the reactions were incubated for 20 minutes at room temperature. The reactions were then read on a Perkin-Elmer EnVision 2101 reader (fluorescence) using an excitation of 480 nm and emission of 535 nm. 1050s were determined using an internal Novartis software (Helios).
as §3, with “nm.” for “nm. 1050s were determined using an internal Novartis software (Helios).”

In test [2] the target is human CMV DNA polymerase UL54 (Human cytomegalovirus (strain AD169) (HHV-5) (Human herpesvirus 5), UniProt P08546). Kind of test: CMV polymerase biochemical assay (molecular beacon-based). On the procedure: as §1, §2, §3
as §3, with “nm.” for “nm. 1050s were determined using an internal Novartis software (Helios).”

Test [3] has as its system Luciferase-encoding HCMV, AD169 strain. Briefly: CMV Luciferase assay (cellular herpesvirus replication). Type of test: cell-based. Conditions: Human betaherpesvirus 5, AD169, read-out: CMV-Luc Cellular EC50. As for the experimental part: For all viral assays, 10 mM DMSO stock compound solutions were serially diluted in DMSO at 3.16 fold dilutions in 96-well clear round bottom plates. Compounds were then diluted in assay media at 1:20 and subsequently 10 μL of these dilutions were added to cells for final compound concentrations ranging either from 0.0159 μM to 50 μM in 0.5% DMSO/assay media, or from 0.00318 to 10 μM in 0.5% DMSO/assay media.
The assay uses a Luciferase-encoding HCMV. Luciferase is expressed under the control of a late viral gene (pp28) promoter in the AD169 strain, so that expression of the reporter is dependent on viral DNA replication. Compounds that affect any stage from viral entry to DNA replication result in a change in luciferase levels.
Viral replication in the presence or absence of compounds was measured by luciferase activity according to the following procedure: Neo-natal normal human dermal fibroblast cells (NN-NHDF, from ATCC cat #201-010) were seeded at 9,000 cells/well in 96-well white solid bottom plate at 80 uL/well in assay media: 2% FBS, 4 mM GlutaMax® (Invitrogen cat #35050) in DMEM/high glucose/no glutamine/no phenol red media (Invitrogen cat #31053). After 2 hrs at 37° C., 10 uL of compound diluted in assay media or 5% DMSO (final 0.5% DMSO/well) was added and the plates returned to 37° C. One hour later, 10 uL of virus diluted in assay media was added at a final Multiplicity of infection (MOI) of 1. Plates were incubated at 37° C. for 72 hrs. At 72 hours post-infection (hpi), plates were equilibrated to room temperature. After 25 min, 100 uL Renilla-Glo® Luciferase Assay Reagent (Promega cat # E2750) was added to each well and incubated for 10 min. Plates were covered to protect from light. Luminescence was measured on the PHERAstar FS®.
The following controls were included in the data analysis: No virus, no compound (0.5% DMSO)=IC (maximal inhibitory control); Virus, no compound (0.5% DMSO)=NC (neutral control). Data were analyzed using an internal Novartis software (Helios). The means of the controls (NC, IC) were used to normalize the results to a % scale using the formula: % Control=100−(100*(Sample value−NC)/(IC−NC)).
For each compound, the software derived an EC50 using a 4-parameter logistical model.

Regarding `N#Cc1ccc(CNC(=O)c2ccc3n(c2=O)CCN(CC2(S(=O)(=O)[C@@H]4CC4(F)F)CC2)C3=O)cc1` (single isomer, unassigned) [Example 100-2], the IC50 (usually the midpoint of a concentration-inhibition curve) in test [1] turned out to be 39.5 nM; in test [2] it was 1 nM. Besides, the concentration for a half-maximal effect (EC50) (commonly the concentration giving half of the maximal effect) in test [3] stood at 43.1 nM.

Consider `N#Cc1ccc(CNC(=O)c2ccc3n(c2=O)CCN(CC2(S(=O)(=O)[C@H]4CC4(F)F)CC2)C3=O)cc1F` (single isomer, unassigned) [Example 101-1], for which the IC50 was found to be 48.7 nM in test [1] and 1 nM in test [2]. In addition, the EC50 in test [3] came out at 55.5 nM.

Turning to `N#Cc1ccc(CNC(=O)c2ccc3n(c2=O)CCN(CC2(S(=O)(=O)[C@@H]4CC4(F)F)CC2)C3=O)cc1F` (single isomer, unassigned) [Example 101-2], the figures for the IC50 in test [1] and in test [2] were 32.9 nM and 0.6 nM, respectively. The concentration giving a half-maximal response (EC50) in test [3] is 29.6 nM.

For the compound `N#Cc1ccc(CNC(=O)c2ccc3n(c2=O)CCN(CC2(S(=O)(=O)[C@H]4CC4(F)F)CC2)C3=O)cc1Cl` (single isomer, unassigned) [Example 102-1], the half-maximal inhibitory concentration (IC50) in test [1] was determined as 199 nM; in test [2], 2 nM. Moreover, the 50% effective concentration (EC50) in test [3] was 229 nM.

Regarding `N#Cc1ccc(CNC(=O)c2ccc3n(c2=O)CCN(CC2(S(=O)(=O)[C@@H]4CC4(F)F)CC2)C3=O)cc1Cl` (single isomer, unassigned) [Example 102-2], the results for the 50% inhibitory concentration (IC50) in test [1] and in test [2] were 162 nM and 1.5 nM, respectively. Also, in test [3], the EC50 amounted to 85.2 nM.

Take `O=C(NCc1ccc(Cl)cc1)c1ccc2n(c1=O)CCN(CC1(S(=O)(=O)C3CC3)CC1)C2=O` [Example 2]: the IC50 in test [1] turned out to be 15.5 nM; in test [2], 0.2 nM. In addition, the EC50 in test [3] turned out to be 8.1 nM.

Regarding `N#Cc1ccc(CNC(=O)c2ccc3n(c2=O)CCN(CC2(S(=O)(=O)C4CC4)CC2)C3=O)cc1F` [Example 3-1], the half-maximal inhibitory concentration (IC50) in test [1] came out at 38.1 nM; in test [2], 0.8 nM. Further, in test [3], the EC50 came out at 17.7 nM.

As to `O=C(NCc1ccc(F)cc1)c1ccc2n(c1=O)CCN(CC1(S(=O)(=O)C3CC3)CC1)C2=O` [Example 3-2], the IC50 in test [1] was determined as 78.7 nM; in test [2], 3 nM. Further, in test [3], the half-maximal effective concentration (EC50) is 84.8 nM.

Take `O=C(NCc1ccc(F)c(F)c1)c1ccc2n(c1=O)CCN(CC1(S(=O)(=O)C3CC3)CC1)C2=O` [Example 3-3]: the results for the half-inhibitory concentration (IC50) in test [1] and in test [2] were 149 nM and 7.9 nM, respectively. In test [3], the concentration for a half-maximal effect (EC50) was 64 nM.

Turning to `COc1cc(CNC(=O)c2ccc3n(c2=O)CCN(CC2(S(=O)(=O)C4CC4)CC2)C3=O)ccc1Cl` [Example 3-5], the 50% inhibitory concentration (IC50) in test [1] came to 117 nM; in test [2], 2 nM. Also, the EC50 in test [3] was 211 nM.

Turning to `CC(CCO)S(=O)(=O)C1(CN2CCn3c(ccc(C(=O)NCc4ccc(C#N)cc4)c3=O)C2=O)CC1` (stereo not drawn) [Example 5, N-(4-cyanobenzyl)-2-((1-((4-hydroxybutan-2-yl)sulfonyl)cyclopropyl)methyl)-1,6-dioxo-2,3,4,6-tetrahydro-1H-pyrido[1,2-a]pyrazine-7-carboxamide], the IC50 in test [1] was 105 nM; in test [2], 2.2 nM. For the same compound, the EC50 in test [3] worked out at 470 nM.

In the case of `O=C(NCc1ccc(Cl)cc1)c1ccc2n(c1=O)CCN(CC1(S(=O)(=O)C3(CO)CC3)CC1)C2=O` [Example 10, N-(4-chlorobenzyl)-2-((1-((1-(hydroxymethyl)cyclopropyl)sulfonyl)cyclopropyl)methyl)-1,6-dioxo-2,3,4,6-tetrahydro-1H-pyrido[1,2-a]pyrazine-7-carboxamide], the figures for the half-maximal inhibitory concentration (IC50) in test [1] and in test [2] were 18.8 nM and 0.3 nM, respectively. In addition, the half-maximal effective concentration (EC50) in test [3] amounted to 4.9 nM.

For the compound `N#Cc1ccc(CNC(=O)c2ccc3n(c2=O)CCN(CC2(S(=O)(=O)C4(CO)CC4)CC2)C3=O)cc1` [Example 11], the values for the half-inhibitory concentration (IC50) in test [1] and in test [2] were 24.3 nM and 0.4 nM, respectively. For the same compound, in test [3], the concentration for a half-maximal effect (EC50) worked out at 26.7 nM.

On to `N#Cc1ccc(CNC(=O)c2ccc3n(c2=O)CCN(CC2(S(=O)(=O)C4(CO)CC4)CC2)C3=O)cc1F` [Example 12], for which the values for the half-maximal inhibitory concentration (IC50) in test [1] and in test [2] were 23.5 nM and 0.4 nM, respectively. The EC50 in test [3] worked out at 19.7 nM.

Turning to `N#Cc1ccc(CNC(=O)c2ccc3n(c2=O)CCN(CC2(S(=O)(=O)C4(CF)CC4)CC2)C3=O)cc1` [Example 13], the figures for the concentration for half-maximal inhibition (IC50) in test [1] and in test [2] were 28.3 nM and 0.4 nM, respectively. The EC50 in test [3] is 19.3 nM.

Take `N#Cc1ccc(CNC(=O)c2ccc3n(c2=O)CCN(CC2(S(=O)(=O)C4(CF)CC4)CC2)C3=O)cc1F` [Example 14]: the values for the IC50 in test [1] and in test [2] were 27.9 nM and 0.3 nM, respectively. Besides, the concentration for a half-maximal effect (EC50) in test [3] came to 10 nM.

Turning to `COCC1(S(=O)(=O)C2(CN3CCn4c(ccc(C(=O)NCc5ccc(C#N)cc5)c4=O)C3=O)CC2)CC1` [Example 15], the IC50 in test [1] is 26 nM; in test [2] it was 0.7 nM. Besides, the EC50 in test [3] was found to be 30.2 nM.

As for `N#Cc1ccc(CNC(=O)c2ccc3n(c2=O)CCN(CC2(S(=O)(=O)C4CNC4)CC2)C3=O)cc1F` [Example 16, 2-((1-(azetidin-3-ylsulfonyl)cyclopropyl)methyl)-N-(4-cyano-3-fluorobenzyl)-1,6-dioxo-2,3,4,6-tetrahydro-1H-pyrido[1,2-a]pyrazine-7-carboxamide], the results for the IC50 in test [1] and in test [2] were 285 nM and 6.1 nM, respectively. The concentration giving a half-maximal response (EC50) in test [3] came out at 3420 nM.

With `CN1CC(S(=O)(=O)C2(CN3CCn4c(ccc(C(=O)NCc5ccc(C#N)c(F)c5)c4=O)C3=O)CC2)C1` [Example 17, N-(4-cyano-3-fluorobenzyl)-2-((1-((1-methylazetidin-3-yl)sulfonyl)cyclopropyl)methyl)-1,6-dioxo-2,3,4,6-tetrahydro-1H-pyrido[1,2-a]pyrazine-7-carboxamide], the half-inhibitory concentration (IC50) in test [1] was 380 nM; in test [2], 14.7 nM. Further, the 50% effective concentration (EC50) in test [3] turned out to be 905 nM.

For the compound `N#Cc1ccc(CNC(=O)c2ccc3n(c2=O)CCN(CC2(S(=O)(=O)C4CNC4)CC2)C3=O)cc1` [Example 18], the half-maximal inhibitory concentration (IC50) in test [1] stood at 161 nM; in test [2], 4.2 nM. Further, in test [3], the EC50 came to 3000 nM.

Consider `O=C(NCc1ccc(Cl)cc1)c1ccc2n(c1=O)CCN(CC1(S(=O)(=O)C3CNC3)CC1)C2=O` [Example 19], for which the IC50 is 149 nM in test [1] and 3.9 nM in test [2]. Further, the EC50 in test [3] amounted to 538 nM.
